Experimental data from US9145346B1, “Process for 2,2,4,4-tetramethylcyclobutane-1,3-diol crystallization” (Eastman Chemical Company, priority 2014, dated 2015).

Test: Solubility (saturated concentration) of cis-TMCD and trans-TMCD in various solvents, by gas chromatography
Type: physicochemical
Protocol: All concentrations were measured by gas chromatography. Water concentration was measured by Karl Fischer titrations.
The solubility of cis-TMCD and trans-TMCD in various solvents was determined by charging cis-TMCD, trans-TMCD, and the solvent or solvents of interest into a 120 ml jacketed glass vessel. The vessel was equipped with a stir bar in order to provide mixing and the jacket was used to control the temperature of the vessel contents. The vessel was equipped with charging and sampling ports on top of the vessel.
The slurry was allowed to stand for a time sufficient for the solids to saturate the solvent at the desired temperature. At that time, a sample of the solution was withdrawn from the cell using a fritted pipette so as to remove only the liquid phase. The sample was analyzed for cis-TMCD and trans-TMCD isomer content. These values represent the saturated concentration of each isomer at the sampling temperature.
After this, the cell contents were heated to the next desired temperature and the contents were held for another time interval sufficient to allow the slurry to equilibrate. A sample was then taken of the solution and analyzed. Following this procedure, solubility data was collected up to the final desired temperature.
The reported solubility of each isomer at a given temperature for a given solvent is expressed as a weight % relative to the saturated concentration of the isomer at the highest temperature reported for a given solvent.

- Relative solubility (2-Ethylhexanol, 0.7° C., relative to 89.8° C.): 11% relative wt %
- Relative solubility (2-Ethylhexanol, 12.5° C., relative to 89.8° C.): 15% relative wt %
- Relative solubility (2-Ethylhexanol, 24.7° C., relative to 89.8° C.): 20% relative wt %
- Relative solubility (2-Ethylhexanol, 40.0° C., relative to 89.8° C.): 28% relative wt %
- Relative solubility (2-Ethylhexanol, 49.9° C., relative to 89.8° C.): 36% relative wt %
- Relative solubility (2-Ethylhexanol, 60.2° C., relative to 89.8° C.): 45% relative wt %
- Relative solubility (2-Ethylhexanol, 69.3° C., relative to 89.8° C.): 57% relative wt %
- Relative solubility (2-Ethylhexanol, 79.3° C., relative to 89.8° C.): 75% relative wt %
- Relative solubility (2-Ethylhexanol, 89.8° C., relative to 89.8° C.): 100% relative wt %
- Relative solubility (2-Ethylhexyl Acetate, 5.9° C., relative to 79.4° C.): 6% relative wt %
- Relative solubility (2-Ethylhexyl Acetate, 15.5° C., relative to 79.4° C.): 9% relative wt %
- Relative solubility (2-Ethylhexyl Acetate, 25.1° C., relative to 79.4° C.): 12% relative wt %
- Relative solubility (2-Ethylhexyl Acetate, 40.5° C., relative to 79.4° C.): 22% relative wt %
- Relative solubility (2-Ethylhexyl Acetate, 49.8° C., relative to 79.4° C.): 32% relative wt %
- Relative solubility (2-Ethylhexyl Acetate, 49.9° C., relative to 79.4° C.): 33% relative wt %
- Relative solubility (2-Ethylhexyl Acetate, 60.5° C., relative to 79.4° C.): 48% relative wt %
- Relative solubility (2-Ethylhexyl Acetate, 70.3° C., relative to 79.4° C.): 74% relative wt %
- Relative solubility (2-Ethylhexyl Acetate, 79.4° C., relative to 79.4° C.): 100% relative wt %
- Relative solubility (2-Ethylhexyl Acetate, −5.0° C., relative to 79.4° C.): 4% relative wt %
- Relative solubility (CHDM, 69.0° C., relative to 106.9° C.): 54% relative wt %
- Relative solubility (CHDM, 79.2° C., relative to 106.9° C.): 74% relative wt %
- Relative solubility (CHDM, 88.9° C., relative to 106.9° C.): 80% relative wt %
- Relative solubility (CHDM, 95.6° C., relative to 106.9° C.): 91% relative wt %
- Relative solubility (CHDM, 106.9° C., relative to 106.9° C.): 100% relative wt %
- Relative solubility (Dimethyl Carbonate, 6.2° C., relative to 70.1° C.): 7% relative wt %
- Relative solubility (Dimethyl Carbonate, 16.3° C., relative to 70.1° C.): 9% relative wt %
- Relative solubility (Dimethyl Carbonate, 25.7° C., relative to 70.1° C.): 14% relative wt %
- Relative solubility (Dimethyl Carbonate, 40.5° C., relative to 70.1° C.): 27% relative wt %
- Relative solubility (Dimethyl Carbonate, 54.7° C., relative to 70.1° C.): 54% relative wt %
- Relative solubility (Dimethyl Carbonate, 70.1° C., relative to 70.1° C.): 100% relative wt %
- Relative solubility (Ethanol, 5.3° C., relative to 60.3° C.): 51% relative wt %
- Relative solubility (Ethanol, 14.3° C., relative to 60.3° C.): 55% relative wt %
- Relative solubility (Ethanol, 25.5° C., relative to 60.3° C.): 76% relative wt %
- Relative solubility (Ethanol, 39.9° C., relative to 60.3° C.): 82% relative wt %
- Relative solubility (Ethanol, 50.1° C., relative to 60.3° C.): 92% relative wt %
- Relative solubility (Ethanol, 60.3° C., relative to 60.3° C.): 100% relative wt %
- Relative solubility (Ethyl Acetate, 4.2° C., relative to 54.9° C.): 16% relative wt %
- Relative solubility (Ethyl Acetate, 15.0° C., relative to 54.9° C.): 25% relative wt %
- Relative solubility (Ethyl Acetate, 26.2° C., relative to 54.9° C.): 38% relative wt %
- Relative solubility (Ethyl Acetate, 40.5° C., relative to 54.9° C.): 62% relative wt %
- Relative solubility (Ethyl Acetate, 54.9° C., relative to 54.9° C.): 100% relative wt %
- Relative solubility (Ethyl Acetate, −5.1° C., relative to 54.9° C.): 12% relative wt %
- Relative solubility (Ethylene Glycol, 26.5° C., relative to 91.4° C.): 24% relative wt %
- Relative solubility (Ethylene Glycol, 36.2° C., relative to 91.4° C.): 32% relative wt %
- Relative solubility (Ethylene Glycol, 48.5° C., relative to 91.4° C.): 44% relative wt %
- Relative solubility (Ethylene Glycol, 61.5° C., relative to 91.4° C.): 61% relative wt %
- Relative solubility (Ethylene Glycol, 72.1° C., relative to 91.4° C.): 68% relative wt %
- Relative solubility (Ethylene Glycol, 82.2° C., relative to 91.4° C.): 82% relative wt %
- Relative solubility (Methanol, 16.9° C., relative to 41.3° C.): 82% relative wt %
- Relative solubility (Methanol, 25.6° C., relative to 41.3° C.): 89% relative wt %
- Relative solubility (Methanol, 41.3° C., relative to 41.3° C.): 100% relative wt %
- Relative solubility (Methanol, −2.5° C., relative to 41.3° C.): 70% relative wt %
- Relative solubility (Methyl Acetate, 5.9° C., relative to 49.8° C.): 14% relative wt %
- Relative solubility (Methyl Acetate, 15.5° C., relative to 49.8° C.): 22% relative wt %
- Relative solubility (Methyl Acetate, 25.1° C., relative to 49.8° C.): 33% relative wt %
- Relative solubility (Methyl Acetate, 40.5° C., relative to 49.8° C.): 59% relative wt %
- Relative solubility (Methyl Acetate, 49.8° C., relative to 49.8° C.): 100% relative wt %
- Relative solubility (Methyl Acetate, −5.0° C., relative to 49.8° C.): 9% relative wt %
- Relative solubility (Methyl i-Butyl Carbinol, 9.4° C., relative to 81.9° C.): 18% relative wt %
- Relative solubility (Methyl i-Butyl Carbinol, 20.4° C., relative to 81.9° C.): 23% relative wt %
- Relative solubility (Methyl i-Butyl Carbinol, 31.1° C., relative to 81.9° C.): 29% relative wt %
- Relative solubility (Methyl i-Butyl Carbinol, 40.0° C., relative to 81.9° C.): 39% relative wt %
- Relative solubility (Methyl i-Butyl Carbinol, 49.5° C., relative to 81.9° C.): 47% relative wt %
- Relative solubility (Methyl i-Butyl Carbinol, 60.0° C., relative to 81.9° C.): 60% relative wt %
- Relative solubility (Methyl i-Butyl Carbinol, 69.5° C., relative to 81.9° C.): 77% relative wt %
- Relative solubility (Methyl i-Butyl Carbinol, 81.9° C., relative to 81.9° C.): 100% relative wt %
- Relative solubility (i-Butyl Acetate, 4.8° C., relative to 90.1° C.): 6% relative wt %
- Relative solubility (i-Butyl Acetate, 16.9° C., relative to 90.1° C.): 9% relative wt %
- Relative solubility (i-Butyl Acetate, 25.6° C., relative to 90.1° C.): 12% relative wt %
- Relative solubility (i-Butyl Acetate, 41.3° C., relative to 90.1° C.): 21% relative wt %
- Relative solubility (i-Butyl Acetate, 56.2° C., relative to 90.1° C.): 36% relative wt %
- Relative solubility (i-Butyl Acetate, 70.2° C., relative to 90.1° C.): 58% relative wt %
- Relative solubility (i-Butyl Acetate, 90.1° C., relative to 90.1° C.): 100% relative wt %
- Relative solubility (i-Butyl Acetate, −2.5° C., relative to 90.1° C.): 5% relative wt %
- Relative solubility (n-Butanol, 5.9° C., relative to 60.5° C.): 44% relative wt %
- Relative solubility (n-Butanol, 15.5° C., relative to 60.5° C.): 49% relative wt %
- Relative solubility (n-Butanol, 25.1° C., relative to 60.5° C.): 58% relative wt %
- Relative solubility (n-Butanol, 40.5° C., relative to 60.5° C.): 72% relative wt %
- Relative solubility (n-Butanol, 49.8° C., relative to 60.5° C.): 86% relative wt %
- Relative solubility (n-Butanol, 49.9° C., relative to 60.5° C.): 86% relative wt %
- Relative solubility (n-Butanol, 60.5° C., relative to 60.5° C.): 100% relative wt %
- Relative solubility (n-Butanol, −5.0° C., relative to 60.5° C.): 39% relative wt %
- Relative solubility (n-Butyl Propionate, 6.5° C., relative to 91.9° C.): 5% relative wt %
- Relative solubility (n-Butyl Propionate, 16.8° C., relative to 91.9° C.): 8% relative wt %
- Relative solubility (n-Butyl Propionate, 27.7° C., relative to 91.9° C.): 13% relative wt %
- Relative solubility (n-Butyl Propionate, 41.7° C. (sample 4), relative to 91.9° C.): 16% relative wt %
- Relative solubility (n-Butyl Propionate, 41.7° C. (sample 5), relative to 91.9° C.): 22% relative wt %
- Relative solubility (n-Butyl Propionate, 52.0° C., relative to 91.9° C.): 32% relative wt %
- Relative solubility (n-Butyl Propionate, 61.5° C., relative to 91.9° C.): 44% relative wt %
- Relative solubility (n-Butyl Propionate, 69.1° C., relative to 91.9° C.): 59% relative wt %
- Relative solubility (n-Butyl Propionate, 80.7° C., relative to 91.9° C.): 78% relative wt %
- Relative solubility (n-Butyl Propionate, 91.9° C., relative to 91.9° C.): 100% relative wt %
- Relative solubility (n-Propyl Propionate, 7.0° C., relative to 72.2° C.): 11% relative wt %
- Relative solubility (n-Propyl Propionate, 17.1° C., relative to 72.2° C.): 15% relative wt %
- Relative solubility (n-Propyl Propionate, 26.7° C., relative to 72.2° C.): 22% relative wt %
- Relative solubility (n-Propyl Propionate, 37.4° C., relative to 72.2° C.): 29% relative wt %
- Relative solubility (n-Propyl Propionate, 42.4° C., relative to 72.2° C.): 37% relative wt %
- Relative solubility (n-Propyl Propionate, 52.2° C., relative to 72.2° C.): 53% relative wt %
- Relative solubility (n-Propyl Propionate, 62.9° C., relative to 72.2° C.): 76% relative wt %
- Relative solubility (n-Propyl Propionate, 72.2° C., relative to 72.2° C.): 100% relative wt %
SMILES: CC1(C)[C@H](O)C(C)(C)[C@H]1O [trans-TMCD, trans-2,2,4,4-tetramethylcyclobutane-1,3-diol]
